{"source": "patent US11053468B2", "about": "“Multiwell cell culture system having rotating shafts for mixing culture media and method of use thereof” (The Johns Hopkins University, priority 2015, dated 2021)", "key": {"[1]": {"tested_on": "human developing cerebral cortex organoids", "assay": "Toxin screening of BPA in the 12-well culture system, proliferation of neuronal precursor cells", "assay_type": "cell-based", "settings": "different concentrations of BPA", "method": "Culture conditions were systemically tested to optimize protocols. Additionally, screening was performed to test the effects of Bisphenol A (BPA) on neurogenesis in the organoid system.\nToxin screening was performed using the 12-well culture system. Images of the effect of different concentrations of BPA on human developing cerebral cortex organoids were taken (data not shown)."}, "forebrain organoids [2]": {"tested_on": "forebrain organoids", "assay": "Long-term BPA treatment of forebrain organoids (days 14 to 28), relative VZ thickness", "assay_type": "cell-based, human", "settings": "treatment from days 14 to 28; forebrain organoids in SpinΩ", "method": "(§1) The apparent homogeneity of forebrain organoids, small volume per condition, and multi-well format of SpinΩ comprise a platform that is amenable to chemical compound testing. As a proof of principle, we tested the effect of Bisphenol A (BPA), which is commonly found in household plastic products and is known to affect rodent neural development.\nForebrain organoids were grown using the protocol described above. For the long-term BPA treatment experiment, forebrain organoids at day 14 from the same batch were distributed randomly into separate wells within SpinQ and treated with different concentrations of BPA (Sigma). BPA was dissolved in sequential dilutions in differentiation media with 0.05% methanol, which was also added in the control condition. Media containing BPA was replaced every other day until analysis on day 28. […] Quantification was conducted by investigators blind to culture conditions.\nOrganoids grown from the “intrinsic protocol” and forebrain protocol were immunostained for SOX2, TUJ1 and CTIP2 at days 14 and 28. […] The length for VZ and outer layer was measured in ImageJ™ software. […] Relative thicknesses for VZ, SVZ and CP were calculated by the ratio to total thickness from ventricular to pial surface."}, "[3]": {"tested_on": "NPCs in forebrain organoids", "assay": "Acute BPA treatment of forebrain organoids (24 hr), EdU pulse-labeling and PH3 immunostaining", "assay_type": "cell-based, human", "settings": "acute treatment with higher BPA concentrations for 24 hr", "method": "as §1\nFor the acute BPA treatment experiment, forebrain organoids were grown to day 28 and treated with corresponding concentrations of BPA for 24 hr. At day 29, the culture media was replaced with fresh media and washed 3 times to remove residual BPA. Organoids were then pulsed with 10 μM EdU for 2 hr. The media was then replaced and organoids were washed 3 times with fresh media. At day 30, organoids were fixed for immunohistochemistry and EdU detection using Click-iT® EdU Alexa Fluor® 488 Imaging Kit (ThermoFisher C10337) according to the manufacturer's manual, followed by immunostaining for SOX2 and PH3. Images were acquired with a Zeiss' LSM 700 Confocal system at 25× magnification. Quantification was performed by counting the number of EdU and PH3+ nuclei within SOX2+ ventricular structures that were defined by neural tube-like morphology. EdU and PH3 densities were normalized to the area of ventricular structures measured in ImageJ software. Quantification was conducted by investigators blind to culture conditions."}, "forebrain organoids [4]": {"tested_on": "forebrain organoids", "assay": "Signaling-molecule treatment of embryoid bodies during the Matrigel stage, activated caspase-3 (CAS3) immunostaining", "assay_type": "cell-based, human", "settings": "for number of CAS3+ cells at day 14: combined treatment with the three factors CHIR99021, WNT3A and SB-431542 during the Matrigel stage", "description": "To reduce tissue heterogeneity, we pre-patterned embryoid bodies to the fate of a specific brain region. We first treated human iPSCs with dual SMAD inhibitors (dorsomorphin and A-83) for 7 days and then embedded embryoid bodies in Matrigel for another 7 days, followed by Matrigel removal and spinning in SpinΩ (FIG. 12). Compared to the “intrinsic protocol,” we could reliably generate organoids from multiple iPSC lines with reduced heterogeneity in organoid shape and size (data not shown). However, there was significant cell death within organoids, as shown by activated caspase-3 (CAS3) immune-staining (data not shown). We then tested combinations of different signaling molecules for various durations. […] Later, we determined that the WNT3A contribution was minimal, likely because WNT3A and CHIR99021 activate the same downstream signaling pathway (data not shown). At day 14, well-defined polarized neuroepithelium-like structures resembled neural tubes, with a nearly pure population of NESTIN+SOX2+ NPCs and expression of adherent junction markers (b-CATENIN and PKC1) and proliferation marker phosphohistone H3 (PH3) near the ventricular surface (data not shown). […] Upon spinning in SpinΩ, organoids developed into multi-layer stratified structures, composed of SOX2+NPCs, TBR2+ intermediate progenitor cells (IPCs), and CTIP2+ neurons (data not shown). With a small volume, it became affordable to supplement media with growth factors at later stages (data not shown).\nTo generate forebrain-specific organoids, human iPSC colonies were detached 7 days after passage with Collagenase Type IV, washed with fresh stem cell medium and cultured in a 15 ml conical tube. On day 1, detached and washed iPSC colonies were transferred to an Ultra-Low attachment 6-well plate (Corning Costar), containing 3 ml of stem cell medium (without FGF-2), plus 2 μM Dorsomorphine (Sigma) and 2 μM A83-01 (Tocris). On days 5-6, half of the medium was replaced with induction medium consisting of DMEM:F12, 1×N2 Supplement (Invitrogen), 10 μg/ml Heparin (Sigma), 1× Penicillin/Streptomycin, 1× Non-essential Amino Acids, 1× Glutamax, 4 ng/ml WNT-3A (R&D Systems), 1 μM CHIR99021 (Cellagentech), and 1 μM SB-431542 (Cellagentech). On day 7, organoids were embedded in Matrigel (BD Biosciences) and continued to grow in induction medium for 6 more days. On day 14, embedded organoids were mechanically dissociated from Matrigel by pipetting up and down onto the plate with a 5 ml pipette tip. Typically, 10-20 organoids were transferred to each well of a 12-well spinning bioreactor (FIGS. 1-11) containing differentiation medium, consisting of DMEM:F12, 1×N2 and B27 Supplements (Invitrogen), 1× Penicillin/Streptomycin, 1×2-Mercaptoenthanol, 1× Non-essential Amino Acids, 2.5 μg/ml Insulin (Sigma). […]"}}}
{"molecule": "CC(C)(c1ccc(O)cc1)c1ccc(O)cc1", "note": "[BPA, Bisphenol A]", "values": [{"measurement": "proliferation rate of neuronal precursor cells in human organoids", "setting": "[1]", "result": "dose-dependent effect"}, {"measurement": "relative VZ thickness at day 28", "setting": "forebrain organoids [2]", "result": "dose-dependent decrease"}, {"measurement": "density of PH3+ NPCs", "setting": "[3]", "result": "decreased density"}, {"measurement": "density of EdU+ NPCs", "setting": "[3]; then EdU pulse", "result": "decreased density"}]}
{"molecule": "Cc1c[nH]c(-c2cnc(NCCNc3ccc(C#N)cn3)nc2-c2ccc(Cl)cc2Cl)n1", "note": "[CHIR99021]", "values": [{"measurement": "number of CAS3+ cells at day 14", "setting": "forebrain organoids [4]", "result": "drastically reduced"}]}
{"molecule": "NC(=O)c1ccc(-c2nc(-c3ccc4c(c3)OCO4)c(-c3ccccn3)[nH]2)cc1", "note": "[SB-431542]", "values": [{"measurement": "number of CAS3+ cells at day 14", "setting": "forebrain organoids [4]", "result": "drastically reduced"}]}
{"molecule": "WNT3A: recombinant WNT3A protein (protein, UniProt P56704 19-352, looked up) Protein Wnt-3a: SYPIWWSLAVGPQYSSLGSQPILCASIPGLVPKQLRFCRNYVEIMPSVAEGIKIGIQECQHQFRGRRWNCTTVHDSLAIFGPVLDKATRESAFVHAIASAGVAFAVTRSCAEGTAAICGCSSRHQGSPGKGWKWGGCSEDIEFGGMVSREFADARENRPDARSAMNRHNNEAGRQAIASHMHLKCKCHGLSGSCEVKTCWWSQPDFRAIGDFLKDKYDSASEMVVEKHRESRGWVETLRPRYTYFKVPTERDLVYYEASPNFCEPNPETGSFGTRDRTCNVSSHGIDGCDLLCCGRGHNARAERRREKCRCVFHWCCYVSCQECTRVYDVHTCK", "values": [{"measurement": "number of CAS3+ cells at day 14", "setting": "forebrain organoids [4]", "result": "drastically reduced"}, {"measurement": "contribution to the reduction of CAS3+ cells", "setting": "forebrain organoids [4]; within the three-factor treatment, WNT3A and CHIR99021 activate the same downstream pathway", "result": "minimal"}]}
